According to ChEMBL document CHEMBL4425146, “Synthesis and biological evaluation of N(9)-substituted harmine derivatives as potential anticancer agents” (Bioorg Med Chem Lett, 2016):
pIC50: −log10 of the molar value.

Key:
Type in all cases: functional, cell-based
COLO 205 = experiment: Cytotoxicity against human COLO205 cells assessed as inhibition of cell growth after 48 hrs by MTT assay; details: COLO 205, 48 h
HL-60 [1] = experiment: Cytotoxicity against human HL60 cells assessed as inhibition of cell growth after 48 hrs by MTT assay; details: HL-60, 48 h
HL-60 [2] = experiment: Cytotoxicity against human HL60 cells assessed as inhibition of cell growth after 3 days by MTT assay; details: HL-60, 72 h
P338 = experiment: Cytotoxicity against mouse […] cells assessed as inhibition of cell growth after 3 days by MTT assay; details: 72 h
A549 = experiment: Cytotoxicity against human A549 cells assessed as inhibition of cell growth after 48 hrs by MTT assay; details: A549, 48 h
SGC-7901 = experiment: Cytotoxicity against human SGC7901 cells assessed as inhibition of cell growth after 48 hrs by MTT assay; details: SGC-7901, 48 h
SMMC-7721 = experiment: Cytotoxicity against human SMMC7721 cells assessed as inhibition of cell growth after 48 hrs by MTT assay; details: SMMC-7721, 48 h
MCF7 [3] = experiment: Cytotoxicity against human MCF7 cells assessed as inhibition of cell growth after 48 hrs by MTT assay; details: MCF7, 48 h
MCF7 [4] = experiment: Cytotoxicity against human MCF7 cells assessed as inhibition of cell growth

SMILES | pIC50 (COLO 205) | pIC50 (HL-60 [1]) | pIC50 (HL-60 [2]) | pIC50 (P338) | pIC50 (A549) | pIC50 (SGC-7901) | pIC50 (SMMC-7721) | pIC50 (MCF7 [3]) | pIC50 (MCF7 [4])
COc1cc(Cn2c3ccc(C(C)=O)cc3c3ccnc(C)c32)cc(OC)c1OC | 6.28 | 7.52 | – | – | – | – | – | – | –
COc1ccc(S(=O)(=O)Nc2cccnc2Nc2ccc(O)cc2)cc1 [ABT-751] | – | – | 6.70 | 6.80 | – | – | – | – | –
COc1ccc2c3ccnc(C)c3n(Cc3ccc(C)cc3)c2c1 | – | – | – | – | 5.41 | 5.28 | 4.67 | < 4.30 | –
OCc1ccc2c(c1)c1ccccc1n2Cc1ccc(Cl)nc1 | – | – | – | – | – | – | – | – | 4.52 to 4.70
COc1ccc2c3ccnc(C)c3n(C(=O)c3ccccc3)c2c1 | – | – | – | – | 5.55 | 5.11 | < 4.30 | < 4.30 | –
CCCCCn1c2cc(OC)ccc2c2ccnc(C)c21 | – | – | – | – | 5.20 | 4.69 | 4.76 | < 4.30 | –
COc1ccc2c3ccnc(C)c3n(C)c2c1 | – | – | – | – | 5.30 | 5.01 | 4.36 | < 4.30 | –
CCCn1c2cc(OC)ccc2c2ccnc(C)c21 | – | – | – | – | 5.02 | 4.71 | 4.31 | < 4.30 | –
COc1ccc2c3ccnc(C)c3n(Cc3cc(F)cc(F)c3)c2c1 | – | – | – | – | 4.74 | 5.19 | < 4.30 | < 4.30 | –
COc1ccc2c3ccnc(C)c3n(S(=O)(=O)c3ccccc3)c2c1 | – | – | – | – | 6.08 | 5.23 | < 4.30 | < 4.30 | –
CCCCCCn1c2cc(OC)ccc2c2ccnc(C)c21 | – | – | – | – | 5.31 | 4.88 | 4.84 | < 4.30 | –
COc1ccc2c(c1)[nH]c1c(C)nccc12 [HARMINE] | – | – | – | – | 4.37 | 4.39 | 4.23 | 4.17 | –
CCCCn1c2cc(OC)ccc2c2ccnc(C)c21 | – | – | – | – | 5.22 | 4.95 | 4.54 | < 4.30 | –
COc1ccc2c3ccnc(C)c3n(Cc3ccccc3)c2c1 | – | – | – | – | 5.13 | 4.42 | 4.34 | < 4.30 | –
COc1cccc2c1C(=O)c1c(O)c3c(c(O)c1C2=O)C[C@@](O)(C(=O)CO)C[C@@H]3O[C@H]1C[C@H](N)[C@H](O)[C@H](C)O1 [DOXORUBICIN] | – | – | – | – | 6.12 | – | 5.86 | 6.08 | –
